Data reported in EP4653437A2 (Innovo Therapeutics Inc., priority 2023, dated 2024).
Like-named read-outs stand apart in the source and are kept apart here.

What was measured:
human 15-PGDH = biological target: T1, human 15-PGDH (Homo sapiens, UniProt P15428); assay: Evaluation of 15-PGDH inhibitory activity (fluorescence enzyme assay, NAD+/PGE2); format: biochemical; details: human 15-PGDH enzyme, fluorescence Vmax
T1 construct: purchased R&D System 5660-DH
T1 sequence (P15428 1-266): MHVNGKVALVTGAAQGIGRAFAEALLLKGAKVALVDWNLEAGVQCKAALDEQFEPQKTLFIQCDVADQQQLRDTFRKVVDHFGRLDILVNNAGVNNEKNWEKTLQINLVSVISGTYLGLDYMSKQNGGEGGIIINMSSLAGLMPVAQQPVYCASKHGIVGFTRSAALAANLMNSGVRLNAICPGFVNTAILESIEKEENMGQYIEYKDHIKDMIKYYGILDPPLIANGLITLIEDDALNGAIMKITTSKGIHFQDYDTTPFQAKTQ
Method: 15-PGDH inhibition activity of Example compounds was measured as follows. 6.7 ng of human 15-PGDH (R&D System# 5660-DH) enzyme (10 µL) was added to a black 96 well plate, 60 µL of buffer (50 mM Tris-HCl, pH 7.5, 0.01% Tween 20) was added, and 10 µL of 200 µM β-Nicotinamide adenine dinucleotide sodium salt (Sigma, Cat# N0632-5G) was added. 10 µL of (10x) compound solution in DMSO was added and reacted for 10 minutes at room temperature.

A549 cells = assay: Measurement of PGE2-increasing activity in A549 cells (IL-1β stimulated, PGE2 quantified in supernatant); format: cell-based; details: Homo sapiens, read-out: Increased PGE2 production in A549 cells
In short: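 A549 cells grown 24 h in F12K with 10% FBS, then switched to serum-free medium with or without IL-1β and compound (0.1% DMSO final). After 24 h at 37 °C, 5% CO2, supernatant PGE2 quantified by immunoassay.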

[1] = 24 h, concentration of 1 µM of each compound, IL-1β treated A549 cells

COC(=O)C1CN(c2ccc(-c3cccc4c(C(=O)N5CCCCC5)cnn34)cn2)C1 [Example 219, methyl 1-(5-(3-(piperidine-1-carbonyl)pyrazolo[1,5-a]pyridin-7-yl)pyridin-2-yl)azetidine-3-carboxylate]
IC50 (human 15-PGDH): ≤ 100 nM
fold induction at 1 µM (A549 cells; [1]): > 1.5

O=C(c1cnn2c(-c3ccc(N4CC5(CCC5)C4)nc3)cccc12)N1CCCCC1 [Example 220, (7-(6-(2-azaspiro[3.3]heptan-2-yl)pyridin-3-yl)pyrazolo[1,5-a]pyridin-3-yl)(piperidin-1-yl)methanone]
IC50 (human 15-PGDH): ≤ 100 nM
fold induction at 1 µM (A549 cells; [1]): > 1.5

O=C(c1cnn2c(-c3ccc(N4CC(CO)C4)nc3)cccc12)N1CCCCC1 [Example 221, (7-(6-(3-(hydroxymethyl)azetidin-1-yl)pyridin-3-yl)pyrazolo[1,5-a]pyridin-3-yl)(piperidin-1-yl)methanone]
IC50 (human 15-PGDH): ≤ 100 nM
fold induction at 1 µM (A549 cells; [1]): > 1.5

O=C(c1cnn2c(-c3ccc(N4CCC5(CCC5)CC4)nc3)cccc12)N1CCCCC1 [Example 222, (7-(6-(7-azaspiro[3.5]nonan-7-yl)pyridin-3-yl)pyrazolo[1,5-a]pyridin-3-yl)(piperidin-1-yl)methanone]
IC50 (human 15-PGDH): ≤ 100 nM
fold induction at 1 µM (A549 cells; [1]): > 1.5

O=C(c1cnn2c(-c3ccc(N4CCC5(CCC5)C4)nc3)cccc12)N1CCCCC1 [Example 223, (7-(6-(6-azaspiro[3.4]octan-6-yl)pyridin-3-yl)pyrazolo[1,5-a]pyridin-3-yl)(piperidin-1-yl)methanone]
IC50 (human 15-PGDH): ≤ 100 nM
fold induction at 1 µM (A549 cells; [1]): > 1.5

O=C(c1cnn2c(-c3ccc4cn[nH]c(=O)c4c3)cccc12)N1CCCCC1 [Example 224, 7-(3-(piperidine-1-carbonyl)pyrazolo[1,5-a]pyridin-7-yl)phthalazin-1(2H)-one]
IC50 (human 15-PGDH): ≤ 100 nM
fold induction at 1 µM (A549 cells; [1]): > 1.5

O=C(c1cncc(-c2cccc3c(C(=O)N4CCCCC4)cnn23)c1)N1CC2(CC(O)C2)C1 [Example 225, (6-hydroxy-2-azaspiro[3.3]heptan-2-yl)-[5-[3-(piperidine-1-carbonyl)pyrazolo[1,5-a]pyridin-7-yl]-3-pyridyl]methanone]
IC50 (human 15-PGDH): ≤ 100 nM
fold induction at 1 µM (A549 cells; [1]): > 1.5

O=C(c1cncc(-c2cccc3c(C(=O)N4CCCCC4)cnn23)c1)N1CCC2(CC1)COC2 [Example 226, 2-oxa-7-azaspiro[3.5]nonan-7-yl-[5-[3-(piperidine-1-carbonyl)pyrazolo[1,5-a]pyridin-7-yl]-3-pyridyl]methanone]
IC50 (human 15-PGDH): ≤ 100 nM
fold induction at 1 µM (A549 cells; [1]): > 1.5

O=C(c1cnn2c(-c3ccccc3)cccc12)N1CC2CCC1C2 (stereo not drawn) [Example 227, (2-azabicyclo[2.2.1]heptan-2-yl)(7-phenylpyrazolo[1,5-a]pyridin-3-yl)methanone]
IC50 (human 15-PGDH): ≤ 100 nM
fold induction at 1 µM (A549 cells; [1]): > 1.5

O=C(c1cnn2c(-c3ccccc3)cccc12)N1CC2CCC1CC2 [Example 228, (2-azabicyclo[2.2.2]octan-2-yl)(7-phenylpyrazolo[1,5-a]pyridin-3-yl)methanone]
IC50 (human 15-PGDH): ≤ 100 nM
fold induction at 1 µM (A549 cells; [1]): < 1.5

O=C(c1cnn2c(-c3ccccc3)cccc12)N1C2CCC1CC2 [Example 229, (7-azabicyclo[2.2.1]heptan-7-yl)(7-phenylpyrazolo[1,5-a]pyridin-3-yl)methanone]
IC50 (human 15-PGDH): ≤ 100 nM
fold induction at 1 µM (A549 cells; A549, 24 h): > 1.5

O=C(c1cncc(-c2cccc3c(C(=O)N4CCCCC4)cnn23)c1)N1CC(=NO)C1 [Example 230, (3-hydroxyiminoazetidin-1-yl)-[5-[3-(piperidine-1-carbonyl)pyrazolo[1,5-a]pyridin-7-yl]-3-pyridyl]methanone]
IC50 (human 15-PGDH): ≤ 100 nM
fold induction at 1 µM (A549 cells; [1]): > 1.5

CN1Cc2ccc(-c3cccc4c(C(=O)N5CCC(F)CC5)cnn34)cc2C1=O [Example 231, 6-(3-(4-fluoropiperidine-1-carbonyl)pyrazolo[1,5-a]pyridin-7-yl)-2-methylisoindolin-1-one]
IC50 (human 15-PGDH): ≤ 100 nM
fold induction at 1 µM (A549 cells; [1]): > 1.5

O=C1NCc2ncc(-c3cccc4c(C(=O)N5CCCCC5)cnn34)cc21 [Example 232, 3-(3-(piperidine-1-carbonyl)pyrazolo[1,5-a]pyridin-7-yl)-6,7-dihydro-5H-pyrrolo[3,4-b]pyridin-5-one]
IC50 (human 15-PGDH): ≤ 100 nM
fold induction at 1 µM (A549 cells; [1]): > 1.5

O=C(c1cnn2c(-c3ccc4c(=O)[nH]ncc4c3)cccc12)N1CCCCC1 [Example 233, 6-(3-(piperidine-1-carbonyl)pyrazolo[1,5-a]pyridin-7-yl)phthalazin-1(2H)-one]
IC50 (human 15-PGDH): ≤ 100 nM
fold induction at 1 µM (A549 cells; [1]): > 1.5

O=C1NCc2ccc(-c3cccc4c(C(=O)N5CCC(F)(F)CC5)cnn34)cc21 [Example 234, 6-(3-(4,4-difluoropiperidine-1-carbonyl)pyrazolo[1,5-a]pyridin-7-yl)isoindolin-1-one]
IC50 (human 15-PGDH): ≤ 100 nM
fold induction at 1 µM (A549 cells; [1]): > 1.5

O=C(c1cnn2c(Nc3cc(=O)[nH]cn3)cccc12)N1CCCCC1 [Example 235, 4-[[3-(piperidine-1-carbonyl)pyrazolo[1,5-a]pyridin-7-yl]amino]-1H-pyrimidin-6-one]
IC50 (human 15-PGDH): ≤ 100 nM
fold induction at 1 µM (A549 cells; [1]): > 1.5

Cn1cnc(Nc2cccc3c(C(=O)N4CCCCC4)cnn23)cc1=O [Example 236, 3-methyl-6-[[3-(piperidine-1-carbonyl)pyrazolo[1,5-a]pyridin-7-yl]amino]pyrimidin-4-one]
IC50 (human 15-PGDH): ≤ 100 nM
fold induction at 1 µM (A549 cells; [1]): > 1.5

O=C(c1ccc(-c2cccc3c(C(=O)N4CCCCC4)cnn23)cn1)N1CC(F)(F)C1 [Example 237, (3,3-difluoroazetidin-1-yl)-[5-[3-(piperidine-1-carbonyl)pyrazolo[1,5-a]pyridin-7-yl]-2-pyridyl]methanone]
IC50 (human 15-PGDH): ≤ 100 nM
fold induction at 1 µM (A549 cells; [1]): > 1.5

O=C(c1cnn2c(NCc3ccc(Cl)cc3)cccc12)N1CCCCC1 [Example 238, [7-[(4-chlorophenyl)methylamino]pyrazolo[1,5-a]pyridin-3-yl]-(1-piperidyl)methanone]
IC50 (human 15-PGDH): ≤ 100 nM
fold induction at 1 µM (A549 cells; [1]): > 1.5

O=C(Nc1cccc2c(C(=O)N3CCCCC3)cnn12)c1ccc(Cl)cc1 [Example 239, 4-chloro-N-[3-(piperidine-1-carbonyl)pyrazolo[1,5-a]pyridin-7-yl]benzamide]
IC50 (human 15-PGDH): ≤ 100 nM
fold induction at 1 µM (A549 cells; [1]): > 1.5

O=C(Nc1cccc2c(C(=O)N3CCCCC3)cnn12)c1cncc(F)c1 [Example 241, 5-fluoro-N-[3-(piperidine-1-carbonyl)pyrazolo[1,5-a]pyridin-7-yl]pyridine-3-carboxamide]
IC50 (human 15-PGDH): ≤ 100 nM
fold induction at 1 µM (A549 cells; [1]): > 1.5

O=C(c1cnn2c(NCCc3ccc(Cl)cc3)cccc12)N1CCCCC1 [Example 242, [7-[2-(4-chlorophenyl)ethylamino]pyrazolo[1,5-a]pyridin-3-yl]-(1-piperidyl)methanone]
IC50 (human 15-PGDH): ≤ 100 nM
fold induction at 1 µM (A549 cells; [1]): < 1.5

O=C(O)c1ncc(-c2cccc3c(C(=O)N4CCCCC4)cnn23)cc1F [Example 243, 3-fluoro-5-[3-(piperidine-1-carbonyl)pyrazolo[1,5-a]pyridin-7-yl]pyridine-2-carboxylic acid]
IC50 (human 15-PGDH): ≤ 100 nM
fold induction at 1 µM (A549 cells; [1]): > 1.5

COC(=O)c1ncc(-c2cccc3c(C(=O)N4CCCCC4)cnn23)cc1F [Example 244, methyl 3-fluoro-5-[3-(piperidine-1-carbonyl)pyrazolo[1,5-a]pyridin-7-yl]pyridine-2-carboxylate]
IC50 (human 15-PGDH): ≤ 100 nM
fold induction at 1 µM (A549 cells; [1]): < 1.5

Cn1cnc2ccc(-c3cccc4c(C(=O)N5CCCCC5)cnn34)cc2c1=O [Example 245, 3-methyl-6-(3-(piperidine-1-carbonyl)pyrazolo[1,5-a]pyridin-7-yl)quinazolin-4(3H)-one]
IC50 (human 15-PGDH): ≤ 100 nM
fold induction at 1 µM (A549 cells; [1]): > 1.5

Cn1nc2ccc(-c3cccc4c(C(=O)N5CCCCC5)cnn34)cn2c1=O [Example 246, 2-methyl-6-(3-(piperidine-1-carbonyl)pyrazolo[1,5-a]pyridin-7-yl)-[1,2,4]triazolo[4,3-a]pyridin-3(2H)-one]
IC50 (human 15-PGDH): ≤ 100 nM
fold induction at 1 µM (A549 cells; [1]): > 1.5

O=C(c1cnn2c(-c3cnc(-c4noc(=O)[nH]4)c(F)c3)cccc12)N1CCCCC1 [Example 247, 3-[3-fluoro-5-[3-(piperidine-1-carbonyl)pyrazolo[1,5-a]pyridin-7-yl]-2-pyridyl]-4H-1,2,4-oxadiazol-5-one]
IC50 (human 15-PGDH): ≤ 100 nM
fold induction at 1 µM (A549 cells; [1]): > 1.5

O=C(c1ncc(-c2cccc3c(C(=O)N4CCCCC4)cnn23)cc1F)N1CCC1 [Example 248, [7-[6-(azetidine-1-carbonyl)-5-fluoro-3-pyridyl]pyrazolo[1,5-a]pyridin-3-yl]-(1-piperidyl)methanone]
IC50 (human 15-PGDH): ≤ 100 nM
fold induction at 1 µM (A549 cells; [1]): > 1.5

O=C(c1ncc(-c2cccc3c(C(=O)N4CCCCC4)cnn23)cc1F)N1CCOCC1 [Example 249, [7-[5-fluoro-6-(morpholine-4-carbonyl)-3-pyridyl]pyrazolo[1,5-a]pyridin-3-yl]-(1-piperidyl)methanone]
IC50 (human 15-PGDH): ≤ 100 nM
fold induction at 1 µM (A549 cells; [1]): < 1.5
